Reference: ChEMBL document CHEMBL1139849, “Antifungal acylcyclopentenediones from fruiting bodies of Hygrophorus chrysodon” (2007)

Key:
Format in all cases: functional
Details in all cases: read-out: IZ
Fusarium verticillioides [1] = assay: Antifungal activity against Fusarium verticillioides Nirenberg (Sacc.) by agar diffusion method at 100 ug
Fusarium verticillioides [2] = assay: Antifungal activity against Fusarium verticillioides Nirenberg (Sacc.) by agar diffusion method at 50 ug
Fusarium verticillioides [3] = assay: Antifungal activity against Fusarium verticillioides Nirenberg (Sacc.) by agar diffusion method at 300 ug

| Structure (SMILES) | zone of inhibition at 100 µg/disc (Fusarium verticillioides [1]) [mm] | zone of inhibition at 50 µg/disc (Fusarium verticillioides [2]) [mm] | zone of inhibition at 300 µg/disc (Fusarium verticillioides [3]) [mm] |
| --- | --- | --- | --- |
| C=CCCCCCCCCC(O)=C1C(=O)C=CC1=O [CHRYSOTRIONE A] | 10 | 3 | 35 |
| CCCCCCCCCCC(O)=C1C(=O)C=CC1=O [CHRYSOTRIONE B] | 15 | 3 | 18 |
| Cc1cc(C2CCCCC2)n(O)c(=O)c1 [CICLOPIROX] |  | 25 |  |
